Test results taken from PMC7031696 (Cell chemical biology, 2019).

Test system: 3D7-MR4 trophozoite parasite-infected RBCs
Experiment: Metabolomic profiling (hydrophilic metabolite changes, UHPLC-MS)
Type: cell-based, Plasmodium falciparum

CN(C)Cc1ccc(-c2cc3c(-c4ccc(CN(C)C)cc4)ccnc3[nH]2)cc1.O=C(O)C(F)(F)F [MMV022224]
Log2(fold changes) adenosine (metabolite adenosine, log2 fold change): 0.0000 | Log2(fold changes) alanine/sarcosine (metabolite alanine/sarcosine, log2 fold change): 0.0223 | Log2(fold changes) anthranilate (metabolite anthranilate, log2 fold change): 0.0000 | Log2(fold changes) arginine (metabolite arginine, log2 fold change): 0.0000 | Log2(fold changes) asparagine (metabolite asparagine, log2 fold change): 0.2620 | Log2(fold changes) aspartate (metabolite aspartate, log2 fold change): -0.0524 | Log2(fold changes) biotin (metabolite biotin, log2 fold change): 0.0000 | Log2(fold changes) cCMP (metabolite cCMP, log2 fold change): 0.0000 | Log2(fold changes) cGMP (metabolite cGMP, log2 fold change): 0.0000 | Log2(fold changes) carnitine (metabolite carnitine, log2 fold change): 0.0000 | Log2(fold changes) citrate/isocitrate (metabolite citrate/isocitrate, log2 fold change): -0.2505 | Log2(fold change) of coenzyme A (metabolite coenzyme A): -0.6694 | Log2(fold change) of cyclic-AMP (metabolite cyclic-AMP): 0.0000 | Log2(fold change) of cytidine (metabolite cytidine): 0.1493 | Log2(fold change) of dAMP (metabolite dAMP): 0.0000 | Log2(fold change) of dATP (metabolite dATP): -0.1042 | Log2(fold change) of dCDP (metabolite dCDP): -0.6243 | Log2(fold change) of dCMP (metabolite dCMP): -0.5224 | Log2(fold change) of dCTP (metabolite dCTP): -0.4073 | Log2(fold change) of dGDP/ADP (metabolite dGDP/ADP): -0.4184 | Log2(fold change) of dGMP/AMP (metabolite dGMP/AMP): -0.2434 | Log2(fold change) of dGTP/ATP (metabolite dGTP/ATP): -0.1490 | Log2(fold change) of dTDP (metabolite dTDP): 0.0000 | Log2(fold change) of dTMP (metabolite dTMP): -0.1539 | Log2(fold change) of dTTP (metabolite dTTP): -0.2628 | Log2(fold change) of dUMP (metabolite dUMP): 0.0000 | Log2(fold change) of dUTP (metabolite dUTP): 0.0000 | Log2(fold change) of deoxyguanosine (metabolite deoxyguanosine): 0.0000 | Log2(fold change) of deoxyinosine (metabolite deoxyinosine): 0.0000 | Log2(fold change) of deoxyribose-phosphate (metabolite deoxyribose-phosphate): 0.0000 | Log2(fold change) of deoxyuridine (metabolite deoxyuridine): 0.0000 | Log2(fold change) of dihydroorotate (metabolite dihydroorotate): 0.4231 | Log2(fold change) of folate (metabolite folate): 0.2103 | Log2(fold change) of fructose-1-6-bisphosphate (metabolite fructose-1-6-bisphosphate): -0.0559 | Log2(fold change) of fructose-6-phosphate (metabolite fructose-6-phosphate): 0.0000 | Log2(fold change) of fumarate (metabolite fumarate): -0.4743 | Log2(fold change) of glucono-lactone (metabolite glucono-lactone): 0.0000 | Log2(fold change) of glucose-1/6-phosphate (metabolite glucose-1/6-phosphate): 0.0000 | Log2(fold change) of glutamate (metabolite glutamate): -0.2593 | Log2(fold change) of glutamine (metabolite glutamine): 0.1154 | Log2(fold change) of glutathione (metabolite glutathione): -0.5102 | Log2(fold change) glutathione disulfide (metabolite glutathione disulfide): -0.1758 | Log2(fold change) glycerate (metabolite glycerate): 0.0000 | Log2(fold change) guanine (metabolite guanine): -0.4489 | Log2(fold change) guanosine (metabolite guanosine): 0.0000 | Log2(fold change) histidine (metabolite histidine): 0.2818 | Log2(fold change) homocysteic acid (metabolite homocysteic acid): 0.0000 | Log2(fold change) hydroxyphenylpyruvate (metabolite hydroxyphenylpyruvate): 0.0000 | Log2(fold change) hydroxyproline/Aminolevulinate (metabolite hydroxyproline/Aminolevulinate): -0.0239 | Log2(fold change) hypoxanthine (metabolite hypoxanthine): 0.0610 | Log2(fold change) indole (metabolite indole): 0.8345 | Log2(fold change) inosine (metabolite inosine): -0.1646 | Log2(fold change) isoleucine (metabolite isoleucine): -0.1407 | Log2(fold change) lactate (metabolite lactate): -0.4343 | Log2(fold change) leucine (metabolite leucine): 0.0081 | Log2(fold change) lysine (metabolite lysine): 0.0000 | Log2(fold change) malate (metabolite malate): -0.4038 | Log2(fold change) maleic acid (metabolite maleic acid): -0.3811 | Log2(fold change) methionine (metabolite methionine): 0.2971 | Log2(fold change) myo-inositol (metabolite myo-inositol): 0.0000 | Log2(fold change) nicotinamide mononucleotide (metabolite nicotinamide mononucleotide): 0.0000 | Log2(fold change) nicotinate (metabolite nicotinate): -0.4667 | Log2(fold change) ornithine (metabolite ornithine): 0.0000 | Log2(fold change) orotate (metabolite orotate): -0.1913 | Log2(fold change) orotidine-5'-phosphate (metabolite orotidine-5'-phosphate): -0.1124 | Log2(fold change) oxaloacetate (metabolite oxaloacetate): 0.0000 | Log2(fold change) p-aminobenzoate (metabolite p-aminobenzoate): 0.0000 | Log2(fold change) p-hydroxybenzoate (metabolite p-hydroxybenzoate): 0.0000 | Log2(fold change) pantothenate (metabolite pantothenate): -0.1562 | Log2(fold change) phenylalanine (metabolite phenylalanine): -0.0454 | Log2(fold change) phenylpyruvate (metabolite phenylpyruvate): 0.0000 | Log2(fold change) phosphoenolpyruvate (metabolite phosphoenolpyruvate): -0.1663 | Log2(fold change) prephenate (metabolite prephenate): 0.0000 | Log2(fold change) proline (metabolite proline): -0.1446 | Log2(fold change) pyridoxine (metabolite pyridoxine): 0.0000 | Log2(fold change) pyruvate (metabolite pyruvate): -0.5314 | Log2(fold change) riboflavin (metabolite riboflavin): 0.4707 | Log2(fold change) ribose (metabolite ribose): 0.0000 | Log2(fold change) ribose-phosphate (metabolite ribose-phosphate): 0.0000 | Log2(fold change) ribulose-5-phosphate (metabolite ribulose-5-phosphate): -0.0752 | Log2(fold change) serine (metabolite serine): 0.2570 | Log2(fold change) sn-glycerol-3-phosphate (metabolite sn-glycerol-3-phosphate): 0.2730 | Log2(fold change) succinate/Methylmalonic acid (metabolite succinate/Methylmalonic acid): -0.4610 | Log2(fold change) succinyl-CoA/methylmalonyl-CoA (metabolite succinyl-CoA/methylmalonyl-CoA): -0.1003 | Log2(fold change) taurine (metabolite taurine): 0.0000 | Log2(fold change) thiamine (metabolite thiamine): 0.0000 | Log2(fold change) threonine/homoserine (metabolite threonine/homoserine): 0.2231 | Log2(fold change) thymidine (metabolite thymidine): 0.0000 | Log2(fold changes) thymine (metabolite thymine, log2 fold change): 0.0000 | Log2(fold changes) trehalose-6-Phosphate (metabolite trehalose-6-Phosphate, log2 fold change): 0.0000 | Log2(fold changes) tryptophan (metabolite tryptophan, log2 fold change): 0.5432 | Log2(fold changes) tyrosine (metabolite tyrosine, log2 fold change): 0.1420 | Log2(fold changes) uridine (metabolite uridine, log2 fold change): 0.0000 | Log2(fold changes) valine (metabolite valine, log2 fold change): -0.1357 | Log2(fold changes) xanthine (metabolite xanthine, log2 fold change): 0.0000 | Log2(fold changes) xanthosine-5-phosphate (metabolite xanthosine-5-phosphate, log2 fold change): -0.1792 | Log2(fold changes) xanthosine (metabolite xanthosine, log2 fold change): -1.8994 | Log2(fold changes) xylose (metabolite xylose, log2 fold change): 0.0000
